From ChEMBL document CHEMBL4699438, “Toward the discovery and development of effective modulators of α-synuclein amyloid aggregation” (Eur J Med Chem, 2019)

Columns and labels:
[1] = target: T1, Alpha-synuclein (Homo sapiens, UniProt P37840); assay: Inhibition of alpha-synuclein fibril formation (unknown origin) incubated for 24 hrs to 7 days by thioflavin S based fluorescence assay
[2] = target: T1, Alpha-synuclein; assay: Inhibition of wild type alpha-synuclein aggregation (unknown origin) expressed in Escherichia coli BL21 cells incubated for 30 days by thioflavin T based fluorescence assay
[3] = target: T1, Alpha-synuclein; assay: Binding affinity to alpha-synuclein preformed fibrils (unknown origin) expressed in Escherichia coli BL21(DE3) cells incubated for 30 mins by spectrofluorometric analysis
[4] = target: T1, Alpha-synuclein; assay: Binding affinity to alpha-synuclein oligomer (unknown origin) expressed in Escherichia coli BL21(DE3) cells incubated for 30 mins by spectrofluorometric analysis
[5] = target: T1, Alpha-synuclein; assay: Binding affinity to alpha-synuclein LMV 100 kDa (unknown origin) expressed in Escherichia coli BL21(DE3) cells incubated for 30 mins by spectrofluorometric analysis
[6] = target: T1, Alpha-synuclein; assay: Binding affinity to alpha-synuclein LMV 50 kDa (unknown origin) expressed in Escherichia coli BL21(DE3) cells incubated for 30 mins by spectrofluorometric analysis
[7] = Binding affinity to alpha-synuclein A69C/F94W double-mutant (unknown origin) expressed in Escherichia coli BL21(DE3) cells assessed as binding constant for binding single molecule at 10 uM incubated for 10 mins by fluorescence analysis; parameters: species or system Homo sapiens
[8] = Binding affinity to alpha-synuclein A69C/F94W double-mutant (unknown origin) expressed in Escherichia coli BL21(DE3) cells assessed as binding constant for binding single molecule at 10 uM by absorption spectroscopy; parameters: species or system Homo sapiens
[9] = Binding affinity to alpha-synuclein A69C/F94W double-mutant (unknown origin) expressed in Escherichia coli BL21(DE3) cells assessed as binding constant for binding single molecule at 10 uM incubated for 10 mins by tryptophan fluorescence assay; parameters: species or system Homo sapiens
[10] = Binding affinity to alpha-synuclein Y39W/A69C double-mutant (unknown origin) expressed in Escherichia coli BL21(DE3) cells assessed as binding constant for binding single molecule at 10 uM incubated for 10 mins by fluorescence analysis; parameters: species or system Homo sapiens
[11] = Binding affinity to alpha-synuclein A69C/F94W double-mutant (unknown origin) expressed in Escherichia coli BL21(DE3) cells assessed as binding constant for binding two molecule at 10 uM incubated for 10 mins by fluorescence analysis; parameters: species or system Homo sapiens
[12] = Binding affinity to alpha-synuclein A69C/F94W double-mutant (unknown origin) expressed in Escherichia coli BL21(DE3) cells assessed as binding constant for binding two molecule at 10 uM by absorption spectroscopy; parameters: species or system Homo sapiens
[13] = Binding affinity to alpha-synuclein A69C/F94W double-mutant (unknown origin) expressed in Escherichia coli BL21(DE3) cells assessed as binding constant for binding two molecule at 10 uM incubated for 10 mins by tryptophan fluorescence assay; parameters: species or system Homo sapiens
[14] = Binding affinity to alpha-synuclein Y39W/A69C double-mutant (unknown origin) expressed in Escherichia coli BL21(DE3) cells assessed as binding constant for binding two molecule at 10 uM incubated for 10 mins by fluorescence analysis; parameters: species or system Homo sapiens
[15] = target: T1, Alpha-synuclein; assay: Binding affinity to alpha-synuclein (unknown origin) expressed in Escherichia coli BL21(DE3) by circular dichroism analysis

IC50 [1] [µM]	IC50 [2] [µM]	Kd [3] [µM]	Kd [4] [µM]	Kd [5] [µM]	Kd [6] [µM]	Kd [15] [µM]	SMILES	Kd [7] [µM]	Kd [8] [µM]	Kd [9] [µM]	Kd [10] [µM]	Kd [11] [µM]	Kd [12] [µM]	Kd [13] [µM]	Kd [14] [µM]
0.22	162	0.5	2	5	6.5		COc1cc(/C=C/C(=O)CC(=O)/C=C/c2ccc(O)c(OC)c2)ccc1O [CURCUMIN]	0.69	10	58	0.56	7.7	21	20	0.85
						0.53	CO/N=C(\C(=O)N[C@@H]1C(=O)N2C(C(=O)O)=C(CSc3nc(=O)c(=O)[nH]n3C)CS[C@H]12)c1csc(N)n1 [CEFTRIAXONE]								
